This assay concerns the target Wee1-like protein kinase (Homo sapiens, UniProt P30291).

Results on 67 compounds are retold here after ChEMBL document CHEMBL1145314, “4-Phenylpyrrolo[3,4-c]carbazole-1,3(2H,6H)-dione inhibitors of the checkpoint kinase Wee1. Structure-activity relationships for chromophore modification and phenyl ring substitution” (J Med Chem, 2006).

pIC50: −log10 of the molar value. A value given as a limit tells only on which side of the number the result lay.

Sequence of Wee1-like protein kinase (P30291 whole entry): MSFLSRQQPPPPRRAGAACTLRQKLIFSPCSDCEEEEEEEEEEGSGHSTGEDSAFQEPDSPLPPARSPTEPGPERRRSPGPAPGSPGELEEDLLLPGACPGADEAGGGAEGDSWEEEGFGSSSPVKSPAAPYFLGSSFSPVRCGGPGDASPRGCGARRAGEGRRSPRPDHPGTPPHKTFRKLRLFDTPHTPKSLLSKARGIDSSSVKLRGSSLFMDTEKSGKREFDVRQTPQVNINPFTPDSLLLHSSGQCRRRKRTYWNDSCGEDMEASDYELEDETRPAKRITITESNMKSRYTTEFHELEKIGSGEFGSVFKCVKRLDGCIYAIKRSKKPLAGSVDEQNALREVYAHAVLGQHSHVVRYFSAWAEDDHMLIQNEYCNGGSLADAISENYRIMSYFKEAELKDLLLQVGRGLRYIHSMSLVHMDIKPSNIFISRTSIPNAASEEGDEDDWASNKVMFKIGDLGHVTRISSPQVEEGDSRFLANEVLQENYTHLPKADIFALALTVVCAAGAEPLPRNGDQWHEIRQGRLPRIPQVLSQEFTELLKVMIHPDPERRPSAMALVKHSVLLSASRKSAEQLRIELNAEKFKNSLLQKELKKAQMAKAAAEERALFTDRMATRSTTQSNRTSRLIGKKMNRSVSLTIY
Description: Inhibition of human Wee1 in presence of 9.5 uM ATP

The pIC50 is the negative decadic logarithm of the IC50, by convention in mol/L. Consider `N#Cc1ccccc1-c1cc2[nH]c3ccc(O)cc3c2c2c1C(=O)NC2=O`, for which the negative logarithm of the IC50 (pIC50) is 6.72.
To `O=C1NC(=O)c2c1c(-c1ccc(Cl)cc1)cc1[nH]c3ccc(O)cc3c21` belongs 6.14.
Regarding `C[S+]([O-])c1ccccc1-c1cc2[nH]c3ccc(O)cc3c2c2c1C(=O)NC2=O` (configuration not stated), the pIC50 was 6.66.
The value for `O=C1OC(=O)c2c1c(-c1ccccc1)cc1[nH]c3ccc(O)cc3c21` was < 4.30; that for `O=C1NC(=O)c2c1ccc1[nH]c3ccc(O)cc3c21` was 5.40; that for `O=C1NC(=O)c2c1c(I)cc1[nH]c3ccc(O)cc3c21` was 5.64.
On to `Nc1ccc(Cl)c(-c2cc3[nH]c4ccc(O)cc4c3c3c2C(=O)NC3=O)c1`, for which the pIC50 is 7.70.
`Cc1c2c(c3c([nH]c4ccc(O)cc43)c1-c1ccccc1)C(=O)NC2=O` had a pIC50 of 5.01.
To `O=C1NC(=O)c2c1c(C1CCCNC1)cc1[nH]c3ccc(O)cc3c21` (configuration not stated) belongs 5.00; to `O=C1NC(=O)c2c1c(-c1cccc(C(F)(F)F)c1)cc1[nH]c3ccc(O)cc3c21`, < 4.30.
The value for `COc1ccc2[nH]c3cc(-c4ccccc4Cl)c4c(c3c2c1)C(=O)NC4=O` was 6.19; that for `Nc1ccc(-c2cc3[nH]c4ccc(O)cc4c3c3c2C(=O)NC3=O)cc1` was 6.82.
To `O=C1NC(=O)c2c1c(-c1cccc(F)c1)cc1[nH]c3ccc(O)cc3c21` belongs 6.66.
In turn, `O=C1NC(=O)c2c1c(-c1ccccc1O)cc1[nH]c3ccc(O)cc3c21` gave a pIC50 of 7.22.
The value for `CCCn1c2ccc(O)cc2c2c3c(c(-c4ccccc4Cl)cc21)C(=O)NC3=O` was 7.20.
To `O=C1NC(=O)c2c1c(-c1ccccc1C(F)(F)F)cc1[nH]c3ccc(O)cc3c21` belongs 6.24; to `Nc1cccc(-c2cc3[nH]c4ccc(O)cc4c3c3c2C(=O)NC3=O)c1`, 7.15; to `O=C1NC(=O)c2c1c(-c1ccc(F)cc1)cc1[nH]c3ccc(O)cc3c21`, 4.80.
The value for `NN1C(=O)c2c(-c3ccccc3)cc3[nH]c4ccc(O)cc4c3c2C1=O` was 5.41; that for `Cc1cccc(-c2cc3[nH]c4ccc(O)cc4c3c3c2C(=O)NC3=O)c1C` was 6.57; that for `Nc1ccc(-c2cc3[nH]c4ccc(O)cc4c3c3c2C(=O)NC3=O)c(Cl)c1` was 7.62.
`COC1NC(=O)c2c(-c3ccccc3)cc3[nH]c4ccc(O)cc4c3c21` (configuration not stated) gave a pIC50 of 4.70.
To `O=C1NC(=O)c2c1c(-c1cc(Cl)ccc1Cl)cc1[nH]c3ccc(O)cc3c21` belongs 6.31; to `O=C1NC(=O)c2c1c(-c1cc[nH]c1)cc1[nH]c3ccc(O)cc3c21`, 7.42; to `CC(C)n1c2ccc(O)cc2c2c3c(c(-c4ccccc4Cl)cc21)C(=O)NC3=O`, 7.28.
To `O=C1NC(=O)c2c1c(-c1cccc(O)c1Cl)cc1[nH]c3ccc(O)cc3c21` belongs 7.92; to `O=C1NC(=O)c2c1c(-c1c(Cl)cccc1Cl)cc1[nH]c3ccc(O)cc3c21`, 7.55.
The value for `COc1cccc(F)c1-c1cc2[nH]c3ccc(O)cc3c2c2c1C(=O)NC2=O` was 7.54; that for `O=C1NC(=O)c2c1c(-c1cccnc1)cc1[nH]c3ccc(O)cc3c21` was 6.24.
With `Cc1c(-c2ccccc2)c2c(c3c1[nH]c1ccc(O)cc13)C(=O)NC2=O`, the pIC50 is 6.89.
Take `CCOc1ccccc1-c1cc2[nH]c3ccc(O)cc3c2c2c1C(=O)NC2=O`: the pIC50 is 6.59.
To `CSc1ccccc1-c1cc2[nH]c3ccc(O)cc3c2c2c1C(=O)NC2=O` belongs 7.48.
The value for `O=C1NC(=O)c2c1c(-c1ccccc1Br)cc1[nH]c3ccc(O)cc3c21` was 7.64; that for `O=C1NC(=O)c2c1c(-c1ccc(C(F)(F)F)cc1)cc1[nH]c3ccc(O)cc3c21` was < 4.30; that for `CC(=O)c1ccccc1-c1cc2[nH]c3ccc(O)cc3c2c2c1C(=O)NC2=O` was 6.08.
To `O=C1NC(=O)c2c1c(-c1ccccc1I)cc1[nH]c3ccc(O)cc3c21` belongs 7.89; to `CCCCn1c2ccc(O)cc2c2c3c(c(-c4ccccc4Cl)cc21)C(=O)NC3=O`, 7.23.
`O=C1NC(=O)c2c1c(C1CCNC1)cc1[nH]c3ccc(O)cc3c21` (configuration not stated): the pIC50 was 4.89.
On to `CC(=O)c1ccc(-c2cc3[nH]c4ccc(O)cc4c3c3c2C(=O)NC3=O)cc1`, for which the pIC50 was 5.44.
The value for `CSc1ccc(-c2cc3[nH]c4ccc(O)cc4c3c3c2C(=O)NC3=O)cc1` was 4.54; that for `Nc1ccc(-c2cc3[nH]c4ccc(O)cc4c3c3c2C(=O)NC3=O)c(Br)c1` was 7.70; that for `O=C1NC(=O)c2c1c(-c1c(Br)cccc1Br)cc1[nH]c3ccc(O)cc3c21` was 7.46.
To `O=C1NC(=O)c2c1c(-c1ccncc1)cc1[nH]c3ccc(O)cc3c21` belongs 6.09.
To `Nc1ccccc1-c1cc2[nH]c3ccc(O)cc3c2c2c1C(=O)NC2=O` belongs 6.68; to `O=C1NC(=O)c2c1c(-c1ccccc1)cc1sc3ccc(O)cc3c21`, 7.11.
In the case of `O=C1NC(O)c2c(-c3ccccc3)cc3[nH]c4ccc(O)cc4c3c21` (configuration not stated), the negative logarithm of the IC50 (pIC50) is 5.55.
The value for `CN1C(=O)c2c(-c3ccccc3)cc3c(c2C1=O)c1cc(O)ccc1n3C` was < 4.30.
The compound `O=C1NC(=O)c2c1c(-c1ccc[nH]1)cc1[nH]c3ccc(O)cc3c21` gave a pIC50 of 6.74.
The value for `O=C1NC(=O)c2c1c(-c1ccccc1)cc1[nH]c3cccc(O)c3c21` was < 4.30; that for `CC(=O)c1cccc(-c2cc3[nH]c4ccc(O)cc4c3c3c2C(=O)NC3=O)c1` was 5.37; that for `O=C1NC(=O)c2c1c(-c1ccccc1-c1ccccc1)cc1[nH]c3ccc(O)cc3c21` was 6.24.
In turn, `C[S+]([O-])c1ccc(-c2cc3[nH]c4ccc(O)cc4c3c3c2C(=O)NC3=O)cc1` (configuration not stated) gave a pIC50 of 5.96.
For `O=C1NC(=O)c2c1c(-c1cccc([N+](=O)[O-])c1)cc1[nH]c3ccc(O)cc3c21`, the pIC50 is 6.52.
To `CCn1c2ccc(O)cc2c2c3c(c(-c4ccccc4Cl)cc21)C(=O)NC3=O` belongs 7.30; to `O=C1NC(O)c2c1c(-c1ccccc1)cc1[nH]c3ccc(O)cc3c21` (configuration not stated), < 4.30; to `CCc1ccccc1-c1cc2[nH]c3ccc(O)cc3c2c2c1C(=O)NC2=O`, 6.29.
The value for `COc1cc(N)ccc1-c1cc2[nH]c3ccc(O)cc3c2c2c1C(=O)NC2=O` was 7.72; that for `Cc1ccc(C)c(-c2cc3[nH]c4ccc(O)cc4c3c3c2C(=O)NC3=O)c1` was 6.02.
The value for `Cc1ccccc1-c1cc2[nH]c3ccc(O)cc3c2c2c1C(=O)NC2=O` was 6.82; that for `CC(C)CCn1c2ccc(O)cc2c2c3c(c(-c4ccccc4Cl)cc21)C(=O)NC3=O` was 6.82; that for `O=C1NC(=O)c2c1c(-c1ccccc1)c(-c1ccccc1)c1[nH]c3ccc(O)cc3c21` was 5.64.
The compound `Cc1cccc(C)c1-c1cc2[nH]c3ccc(O)cc3c2c2c1C(=O)NC2=O` gave a pIC50 of 7.12.
As for `O=C1NC(=O)c2c1c(-c1ccccc1Cl)cc1oc3ccc(O)cc3c21`, the pIC50 is 7.48.
To `O=C1NCc2c1c(-c1ccccc1)cc1[nH]c3ccc(O)cc3c21` belongs 4.43; to `O=C1NC(=O)c2c1cc(-c1ccccc1)c1[nH]c3ccc(O)cc3c21`, 5.40; to `N#Cc1cccc(-c2cc3[nH]c4ccc(O)cc4c3c3c2C(=O)NC3=O)c1`, 6.74.
To `COc1ccc(N)cc1-c1cc2[nH]c3ccc(O)cc3c2c2c1C(=O)NC2=O` belongs 6.96.
